In brackets after ≈: the same amount, converted by molar mass.
Experiments:
S. aureus (ATCC29213) = test: In vitro susceptibility, broth microdilution (MIC); type: cell-based; conditions: Staphylococcus aureus; S. aureus ATCC29213; 18-24 h, 37 C; read-out: Antimicrobial activity (MIC) S. aureus ATCC29213
In short: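 CLSI 2-fold serial broth microdilution; K. pneumoniae C238 grown in L-broth, S. aureus ATCC 29213 in Mueller Hinton broth, plates incubated 18–24 h at 37 °C. MIC taken as lowest concentration giving complete growth inhibition by OD600 versus compound-free wells, background-subtracted.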

MRSA (ATCC BAA-1762) = test: In vitro susceptibility, broth microdilution (MIC); type: cell-based, methicillin resistant S. aureus; conditions: Staphylococcus aureus; MRSA ATCC BAA-1762; read-out: Antimicrobial activity (MIC) MRSA ATCC BAA1762
In short: (§1)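 MIC determined by CLSI 2-fold broth microdilution in cation-adjusted Mueller–Hinton broth at ~2.5×10^5 CFU/ml, final compound 0.031–64 μg/ml, 18–24 h at 37 °C. MIC is the lowest concentration giving complete growth inhibition by background-corrected OD600 versus compound-free wells; duplicate or triplicate wells, replicated at least twice.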

VRE#2 (2010A) = test: In vitro susceptibility, broth microdilution (MIC); type: cell-based, vancomycin resistant Enterococci; conditions: VRE#2 (2010A); read-out: Antimicrobial activity (MIC) VRE#2
In short: as §1

S. aureus ATCC 29123 = test: Thigh infection model in neutropenic mice; type: in vivo, female CD-1 mice; conditions: thigh muscle, 10 mg/kg IV BID (2 and 8 h post-infection), 24 hr post infection
Method: The antimicrobial activity of compounds 23 and 60 against S. aureus ATCC 29123 was tested in vivo using a thigh infection model in neutropenic mice. Briefly, animals (female CD-1 mice, 5 weeks of age) were made neutropenic prior to S. aureus thigh infection by pre-treating with cyclophosphamide (150 mg/kg, IP, −4 and −1 days pre-inoculation). On the inoculation day (day 0), mice were infected with S. aureus at time zero (t=0). Animals were individually monitored for adverse reactions for 30 min post-infection.
Compounds 23 and 60 were prepared for IV administration and for oral administration. Vancomycin was administered as a solution in PBS. The test compounds were administered at 2 and 8 hours post-infection and animals were individually monitored for adverse reactions for 30 min after each injection. All animals were then monitored hourly from 20 hours post infection to the endpoint (t=24 hr post infection). At the indicated timepoint, animals were sacrificed and the injected thigh collected.
Quantitative enumeration of bacterial load was determined by plating serial dilutions from homogenized thigh muscles. The plates were incubated and colony counts were determined. CFU per mL calculated was calculated.

SMILES | MIC (S. aureus (ATCC29213)) [µg/mL] | MIC (MRSA (ATCC BAA-1762)) [µg/mL] | MIC (VRE#2 (2010A)) [µg/mL] | reduction in CFU (S. aureus ATCC 29123) [log]
NCCOc1cc2[nH]c(-c3cc4ccc(Br)cc4[nH]3)cc2cc1Cl [Compound 201, 2-((6′-Bromo-5-chloro-1H,1′H-[2,2′-biindol]-6-yl)oxy)ethan-1-amine] | 4 (≈ 9.88 µM) | 4 (≈ 9.88 µM) | 4 (≈ 9.88 µM) | 
CN(C)CCOC(=O)c1c(/C=C/c2ccc(Cl)cc2)[nH]c2cc(Br)ccc12 [Compound 60, (E)-2-(Dimethylamino)ethyl 6-bromo-2-(4-chlorostyryl)-1H-indole-3-carboxylate] | 4 (≈ 8.93 µM) |  |  | 3
C[N+](C)(C)CCON=C(c1c(-c2cc3cc(Cl)ccc3[nH]2)[nH]c2cc(Br)ccc12)C(F)(F)F (racemic) [Compound 221, 2-(((1-(6-Bromo-5′-chloro-1H,1′H-[2,2′-biindol]-3-yl)-2,2,2-trifluoroethylidene)amino)oxy)-N,N,N-trimethylethan-1-aminium Iodide] | 1 | 2 | 2 | 
NCCNC(=O)c1c(-c2cc3cc(Cl)ccc3[nH]2)[nH]c2cc(Br)ccc12 [Compound 206, N-(2-Aminoethyl)-6-bromo-5′-chloro-1H,1′H-[2,2′-biindole]-3-carboxamide] | 8 (≈ 18.5 µM) | 8 (≈ 18.5 µM) | 4 (≈ 9.27 µM) | 
